One assay relates to tubulin. The assay can be described thus: Turbidimetric assay of tubulin polymerisation. Format: biochemical, horse. Conditions: 37° C., increase in A350nm 10 min after lag phase; read-out: Total tubulin polymerisation IC50. The procedure:
A) Tubulin Polymerisation Assay
1. Preparation of tubulin
All manipulations are performed at 4° C. unless otherwise specified. The horse brain is washed in ice-cold BBG buffer and superficial meninges and blood vessels removed. After weighing, cerebral cortices are chopped, homogenised in 75 ml BBG buffer/100 g brain, centrifuged at 6500 g for 15 min and after removal of […], re-centrifuged at 100,000 g for 75 min. The volume of the supernatant (Vml) is measured and V/10 ml 10 mM GTP (Li salt) in H2 O added. The mixture is incubated in sealed centrifuge tubes (30 min, 34° C.) in a shaking water bath to polymerise the tubulin. After polymerisation the tubes are balanced and centrifuged at 100,000 g, (1 h at 27° C.) in a pre-warmed rotor. The high-speed pellet is resuspended in V/4 ml BB buffer and the preparation stirred on ice for 30 min and centrifuged at 100,000 g (1 h at 4° C.) to remove the cold-stable microtubules. An equal volume of BB2G buffer is added to the supernatant which is frozen rapidly in 5 ml samples in plastic weighing dishes floated on a solid CO2 /ethanol slurry, and stored overnight at -80° C. After ca. 18 hours the frozen samples of tubulin are thawed, 10 mM GTP in H2 O added to give a final concentration of 1 mM, and the new volume (Wml), is measured. The polymerisation/depolymerisation cycle is repeated exactly as above but substituting W for V to give twice-cycled tubulin.
2. Turbidimetric Assay of Tubulin Polymerisation
Apparatus: recording spectrophotometer with a 6-position, thermostatted cuvette holder; full scale deflection=0.2 absorbance units.
In a 1 ml spectrophotometer cuvette are mixed 100 μl 10 mM GTP (Li salt) made up in BB buffer, 10 μl H2 O or DMSO-depending on selected drug solvent, BB buffer and tubulin preparation such that the final increase in A350nm is 0.15 units after 16 mins (approx. 100 μl of tubulin prep. or 2.5 mg protein) in a final volume of 1 ml at 37° C. All reagents are stored on ice.
Polymerisation is initiated by raising the temperature to 37° C. and the increase in A350nm of triplicate samples against a reference cuvette is recorded. The reference sample includes a similar incubation mixture either without tubulin or with the addition of 1 mM Ca^2+. The increase over initial A350nm 10 min after the completion of lag phase (control polymerisation is 80% complete within this time) is calculated and expressed as a percentage of the control value, for a range of drug concentrations. The drug concentration required to give a 50% change (IC50) in the control value is determined.

In another assay the test system is P388 D1 cells. The assay can be described thus: P388 D1 colony-forming assay. Format: cell-based. The conditions noted are these: Mus musculus, P388D1; 24 h exposure, 14 days colony growth; read-out: IC50 colony formation. The procedure:
B) P338D1 Colony-forming Assay
In this assay, cells from an in vitro-adapted line of the mouse lymphoid neoplasm, P388 are first exposed to serially diluted concentrations of test compound over a 24 hour period in culture. Thereafter, the ability of such treated cells to form discrete colonies over a 14 day period after resuspension in a semi-solid drug-free medium is determined.
Initially cells in log growth are plated into individual 25 cm^2 tissue culture flasks each containing a final volume of 5 mls of Hepes buffered RPMI 1640 culture medium supplemented with 10 percent foetal calf serum, antibiotics and test compound. All compounds are formulated initially at appropriate concentrations in DMSO, 25 microliters of which is then added to each flask. All compounds are evaluated at concentrations ranging serially in four fold decrements from a top concentration some four fold greater than that already known to inhibit the proliferation of these cells by about 80 to 90 percent in the primary proliferative assay.
After 24 hrs exposure to the test compound the cells are counted and a known number of live cells transferred to a 15 ml centrifuge tube to which 4 mls of a 0.25 percent low temperature gelling agarose solution in complete RPMI tissue culture medium is then added. After 13 days incubation at 37° C., 1 ml of 1% p-Iodonitrotetrazolium violet is added to the top of each tube and allowed to permeate through the agarose for a further 24 to 48 hrs. This dye is metabolised by living cells to produce an insoluble red crystalline product which facilitates counting of the colonies. Samples are taken from each tube and the number of colonies containing a minimum of 50 cells is determined. The concentration of compound necessary to inhibit colony formation by 50 percent relative to that of control cells incubated under identical conditions but in the absence of the test compound is determined.

Another assay has as its system P388/ADR. Briefly: In vivo activity against drug resistant tumour P388/ADR. The arrangement: species or system mouse. Conditions: optimum dose 10.0 mg/kg. The procedure:
CD2-F1 mice, of the same sex, weighing within a 3 gram range surrounding 20 g, are used for this test. Control and test animals are injected intraperitoneally with a suspension of 10^6 viable P388/O tumour cells on day 0. In each test several dose levels which bracket the LD20 for the compound are evaluated; each dose level group contains 6 animals. The test compounds are prepared either in physiologic saline containing 0.05% Tween 80 or distilled water containing 5% dextrose and are administered intraperitoneally on days 1,5 and 9 relative to tumour implant. Doses are on a mg/kg basis according to individual animals' body weights. The day of death for each animal is recorded and the median day of death identified for each group. The difference between the median survival time for treated and control groups is expressed as a percentage increase in life span (% ILS).
E. Activity Against Drug-Resistant Tumours
Using a similar procedure to the Lymphocytic Leukaemia P388/O test, the compound of Example 1 was evaluated against P388/O tumours which had been made resistant to the following standard, clinically used anti-tumour agents: […]

Consider `COC(=O)Nc1cn2nc(OCc3cc(OC)c(OC)c(OC)c3)ccc2n1` [Example 1, Methyl N-[6-(3,4,5-trimethoxybenzyloxy)imidazo[1,2-b]pyridazin-2-yl]carbamate], for which the IC50 – broadly, the point on the concentration scale where inhibition reaches its midpoint – is 420 nM with tubulin and 13.2 nM with P388 D1 cells. Moreover, the “60 Day Survivors” value in the assay with P388/ADR is 0/6. In addition, the “% ILS” value in the assay on P388/ADR is “+90%”.

Values taken from US5380759A, “Methyl N-[6-(3,4,5-trimethoxybenzloxy)imidazo[1,2-b]pyridazin-2-zyl]carbamate used to treat leukemia” (priority 1987, dated 1995).
